Laboratory results reported in patent publication US20080051454A1, “Compositions and methods for transient receptor potential vanilloid (TRPV) channel mediated treatments” (The Board of Trustees Operating Michigan State University, priority 2006, published 2008).

Legend:
mesenteric arteries [1] = assay: MethA-induced CGRP release from isolated mesenteric arteries (radioimmunoassay); design: species or system rat; conditions: CAPZ 10 μM, MethA 10 μM; NS or HS
Experimental: The arteries were dissected free of fat and connective tissues.
The preparations were incubated in a Krebs' solution of the following compositions (in mM): NaCl 119, NaHCO3 25, KH2PO4 1.2, MgSO4 1.5, CaCl2 2.5, KCl 4.7, and D-glucose 11. The Krebs' solution was maintained at 37 °C and gassed with 95% O2 and 5% CO2. After 1 h stabilization period, the arteries were transferred to another chamber containing 1 ml of Krebs' solution with the addition of 0.05% BSA and drugs. […] The tissues were removed after 20 min incubation, and the solutions were collected. At the end of the experiment, the tissues were blotted and weighted.
This antibody has 100% cross-reactivity with rat α-CGRP and 79% with rat β-CGRP. There is no cross-reactivity with rat amylin, calcitonin, somatostatin, or substance P.

WT and TRPV1−/− hearts = assay: OLDA-induced CGRP and SP release from hearts (radioimmunoassay); design: species or system mouse
TRPV1−/− hearts = assay: Preconditioning (PC) protection against I/R in Langendorff hearts with receptor antagonists, TRPV1-null; design: species or system mouse; conditions: CAPZ 10^−7 M, CGRP8-37 10^−6 M, RP67580 10^−7 M
Experimental: Male TRPV1 gene knockout (TRPV1-/-) strain B6.129S[…][…]^tm1Jul and matching control wild type (WT) strain C57BL/6J mice were used (Jackson Laboratory, Bar Harbor, Me.). Mice were heparinized (500 U/kg i.p.) and anesthetized with pentobarbital sodium (50 mg/kg i.p.). […] The distal end of the catheter was connected to a […] Performance Analyzer via a pressure transducer. Coronary flow (CF) was continuously measured using an ultrasonic flow probe placed in the aortic perfusion line. Hearts were paced at 400 bpm except during ischemic PC and sustained global ischemia to avoid inducing excessive ventricular tachyarrhythmia during reperfusion, and pacing was reinitiated 2 minutes after reperfusion. Left ventricular developed pressure (LVDP, peak systolic minuses LVEDP) and LV peak positive […]) during isovolumic contraction were used as indices of LV systolic function; LVEDP and the peak negative […] used as indices of LV diastolic function. […] Non-preconditioned hearts were time-matched perfused with the same duration as that of preconditioned hearts. Group 1: Controls. As normal controls (nonischemic), WT and TRPV1-/- hearts were perfused for 130 minutes. For I/R controls, WT and TRPV1-/- hearts were first perfused with Krebs-Henseleit buffer for 55 min (time-matched perfusion of the equilibration period plus the PC period), and subsequently subjected to 30 minutes of no-flow normothermic global ischemia followed by 40-minutes of reperfusion. Group 2: PC. […] The hearts were subjected to 30 minutes of no-flow normothermic global ischemia followed by 40-minutes of reperfusion as that of I/R control groups. Group 3: PC plus capsazepine (CAPZ). […] Two additional concentrations of CAPZ, 10^-6M and 10^-8 M, were used in WT hearts. An additional drug control was added. After a 20-minute equilibration period, WT hearts were perfused with CAPZ (10^-7 M) for 10 minutes without PC, followed by perfusion with Krebs-Henseleit buffer for 25 minutes (time-matched perfusion of the PC period) and then subjected to I/R. Group 4: […] […]

Wistar rats fed HS diet = assay: Blood pressure after i.v. SR141716A or CAPZ in conscious rats fed HS diet (Example I); assay type: in vivo, rat; conditions: 3 mg/kg iv
Experimental: Experiments were approved by the Institutional Animals Care and Use Committee. Experiments were performed using male Wistar rats (Charles River Laboratory, Wilmington, Mass.). Rats (6 weeks old) were housed in the animal facility for 1 week before the experiments. Rats were then randomly assigned to a normal-sodium (NS) diet (0.4% of Na+ by weight, Harlan Teklad) or HS (4% of Na+ by weight; Harlan Teklad) for 3 weeks. Rats drank water ad libitum throughout the experiment.
Surgical Preparation and MAP measurements: The rats were anesthetized with ketamine and xylazine (80 and 4 mg/kg intraperitoneally, respectively) for implantation of vascular catheters or with urethane ([…] intraperitoneally) throughout protocol 2. […]
Protocol 1: Rats fed a NS or HS diet were randomly assigned to 5 groups for intravenous injection of vehicle or MethA alone or in combination with SR141716A (a CB1 receptor antagonist), CAPZ (a VR1 receptor antagonist), or the combination of the 2 (n=5 to 8). Baseline MAP and its response to the aforementioned drugs were determined 3 hours after surgery when animals were fully awake and unrestrained as described previously. […]

WT hearts = assay: Preconditioning (PC) protection against I/R in Langendorff hearts with receptor antagonists, wild type; design: species or system mouse
Experimental: Male TRPV1 gene knockout (TRPV1-/-) strain B6.129S[…][…]^tm1Jul and matching control wild type (WT) strain C57BL/6J mice were used (Jackson Laboratory, Bar Harbor, Me.). Mice were heparinized (500 U/kg i.p.) and anesthetized with pentobarbital sodium (50 mg/kg i.p.). […] The distal end of the catheter was connected to a […] Performance Analyzer via a pressure transducer. Coronary flow (CF) was continuously measured using an ultrasonic flow probe placed in the aortic perfusion line. Hearts were paced at 400 bpm except during ischemic PC and sustained global ischemia to avoid inducing excessive ventricular tachyarrhythmia during reperfusion, and pacing was reinitiated 2 minutes after reperfusion. Left ventricular developed pressure (LVDP, peak systolic minuses LVEDP) and LV peak positive […]) during isovolumic contraction were used as indices of LV systolic function; LVEDP and the peak negative […] used as indices of LV diastolic function. […] Non-preconditioned hearts were time-matched perfused with the same duration as that of preconditioned hearts. Group 1: Controls. As normal controls (nonischemic), WT and TRPV1-/- hearts were perfused for 130 minutes. For I/R controls, WT and TRPV1-/- hearts were first perfused with Krebs-Henseleit buffer for 55 min (time-matched perfusion of the equilibration period plus the PC period), and subsequently subjected to 30 minutes of no-flow normothermic global ischemia followed by 40-minutes of reperfusion. Group 2: PC. […] The hearts were subjected to 30 minutes of no-flow normothermic global ischemia followed by 40-minutes of reperfusion as that of I/R control groups. Group 3: PC plus capsazepine (CAPZ). […] Two additional concentrations of CAPZ, 10^-6M and 10^-8 M, were used in WT hearts. An additional drug control was added. After a 20-minute equilibration period, WT hearts were perfused with CAPZ (10^-7 M) for 10 minutes without PC, followed by perfusion with Krebs-Henseleit buffer for 25 minutes (time-matched perfusion of the PC period) and then subjected to I/R. Group 4: […] Two additional concentrations of CGRP8-37, 10^-5 M and 10^-7 M, were used in WT hearts. An additional drug control of CGRP8-37 was added as that of the CAPZ control group. Group 5: PC plus RP67580. To determine the role of endogenous SP during PC, hearts from WT and TRPV1-/-mice were perfused as that of CAPZ with RP67580 (10^-7 M), a selective neurokinin-1 (NK1) receptor antagonist. Two additional concentrations of RP67580, 10^-6 M and 10^-8 M, were used in WT hearts. An additional drug control of RP67580 was added as that of the CAPZ control group.

mesenteric arteries [2] = assay: NADA-induced CGRP release from isolated mesenteric arteries (radioimmunoassay); design: species or system rat; conditions: CAPZ 10 μM pretreatment, NADA 10 μM; NS or HS
Experimental: After an 1 h stabilization period, the arteries were transferred to another chamber containing 1 ml of Krebs's solution with the addition of 0.05% BSA and drugs including NADA (1 or 10 μM) or CAPZ (10 μM). The tissues were removed after 20 min incubation, and the solutions were collected and evaporated. […] At the end of the experiment, the tissues were blotted and weighted. […] The results are expressed as pg of milligram of tissues.
This antibody has 100% cross-reactivity with rat a-CGRP and 79% with β-CGRP. There is no cross-reactivity with rat amylin, calcitonin, somatostatin, or substance P. The assay was performed following the manufacturer's protocol.

- effect on cardiac function in WT hearts without I/R (WT hearts): no effect on cardiac function
- effect on PC-induced cardiac protection (LVEDP, LVDP, CF, +dP/dt, −dP/dt) in WT hearts (WT hearts; CAPZ 10^−7 M, CGRP8-37 10^−6 M, RP67580 10^−7 M): abolished PC induced protection
Structure (SMILES): Oc1cc2c(cc1O)CN(C(=S)NCCc1ccc(Cl)cc1)CCC2 [CAPZ, N-[2-(4-Chlorophenyl)ethyl]-1,3,4,5-tetrahydro-7,8-dihydroxy-2H-2-benzazepine-2-carbothioamide]
- effect on MethA-induced CGRP release (mesenteric arteries [1]): blocked
- effect on OLDA-increased CGRP and SP release in WT hearts (WT and TRPV1−/− hearts): blocked
- effect on these parameters in TRPV1−/− hearts (TRPV1−/− hearts): no effect
- duration of transient elevation in blood pressure after injection (Wistar rats fed HS diet): ≤ 7 min
- effect on NADA-induced CGRP release (mesenteric arteries [2]): blocked
